# Laboratory results published in patent US10517889B2, “Modulators of SMAD7 expression” (Ionis Pharmaceuticals, Inc., priority 2017, dated 2019).
# Assays:
# [1] = Body and organ weights after oral gavage in CD-1 mice (Example 7); assay type: in vivo; details: 500 mg/kg oral gavage once daily for 4 weeks, end of study
# Experimental: (§1) Groups of 7-8 week old male CD-1 mice were given an oral gavage dose once daily for 4 weeks of 500 mg/kg of Ionis SMAD7 oligonucleotides. Each group contained 8 mice. One group of male CD-1 mice was administered saline by oral gavage daily.
# Final body weights were measured at the end of the study. There was no significant difference in the body weight of the mice treated with antisense oligonucleotide compared to the control.
# None of the Ionis SMAD7 oligonucleotides caused any changes in organ weights outside the expected range for antisense oligonucleotides.
# [2] = test system: human peripheral blood mononuclear cells (PBMCs); test: Human PBMC activation assay, cytokine levels (IL-10, IL-6, MCP-1, TNF-α) in supernatant after 24 hours (Example 9); details: human PBMC supernatant after 24 hours
# Experimental: Ionis SMAD7 oligonucleotides were tested in an in vitro assay for potential immunostimulatory properties in an in vitro human peripheral blood mononuclear cell (PBMC) activation assay.
# Blood samples were collected from healthy human volunteers in heparinized vials and mixed well. Human PBMCs were isolated by gradient centrifugation using Ficoll-Histopaque. The cells were washed, counted and resuspended in medium. The PBMCs were plated in a 24-well culture plate and various concentrations of oligonucleotides were added to the media. An oligonucleotide historically known to promote an inflammatory response was used as a positive control, whereas an oligonucleotide known not to be pro-inflammatory was used as a negative control. […] The supernatants were collected after 24 hours and analyzed for cytokine levels using MSD platform.
# [3] = test system: mouse Smad7 mRNA; test: Pharmacology: mouse Smad7 mRNA expression in liver, kidney, duodenum, ileum and colon after subcutaneous administration in CD-1 mice (Example 6); assay type: in vivo; details: 50 mg/kg subcutaneous twice weekly for 7 weeks, normalized to GAPDH
# Experimental: (§2) Groups of 8-9 week old male CD-1 mice were injected subcutaneously twice a week for 7 weeks with 50 mg/kg of Ionis oligonucleotides (100 mg/kg/week dose). Each group contained 4 mice. One group of male CD-1 mice was injected subcutaneously twice a week for 7 weeks with PBS. Plasma was collected for analysis on day 28.
# The pharmacological activity of the Ionis oligonucleotides in mice was assessed by measuring mouse Smad7 mRNA expression in liver, kidney, duodenum, ileum, and colon at necropsy.
# Tissue samples from all mice were analyzed for Smad7 mRNA expression using the primer probe set HTS7555 (forward sequence […], designated SEQ ID NO: 2737; reverse sequence […], designated SEQ ID NO: 2738; probe sequence […], designated SEQ ID NO: 2739), which was normalized to mRNA levels of the housekeeping gene, GAPDH. One-way ANOVA with Dunnet's comparison test was used for statistical analysis.
# [4] = Oligonucleotide concentration in liver and colon by LC-MS/MS after subcutaneous administration in CD-1 mice (Example 6); assay type: in vivo; details: 50 mg/kg subcutaneously twice a week for 7 weeks, 48 hours after the last dose
# Experimental: as §2
# Oligonucleotide concentrations in the liver and colon were analyzed using LC-MS/MS method.
# [5] = Plasma chemistry markers after subcutaneous administration in beagle dogs (Example 8); details: 30 mg/kg subcutaneous days 1, 3, 5, 8, 15, 22, 29, plasma at day 31
# [6] = Blood chemistry markers after oral gavage in CD-1 mice (Example 7); assay type: in vivo; details: 500 mg/kg oral gavage once daily for 4 weeks, day 30
# Experimental: The objective of this study was to evaluate the tolerability and pharmacodynamics of select Ionis human SMAD7 antisense oligonucleotides in CD-1 mice following 4 weeks of treatment. The mice were administered oligonucleotides by oral gavage.
# as §1
# Levels of transaminases, albumin, and BUN were measured using a Toshiba 200FR NEO chemistry analyzer (Toshiba Co., Japan).
# [7] = Oligonucleotide concentration in tissues by LC-MS/MS after subcutaneous administration in beagle dogs (Example 8); assay type: in vivo; details: 30 mg/kg subcutaneous, 48 hours after the last dose
# Experimental: (§3) There were 4 animals per group.
# Oligonucleotide concentrations of both ION 830025 and ION 798781 were detected in various tissues by LC-MS/MS analysis. The results are presented below, expressed as μg/g tissue. The data was collected 48 hours after the last dose.
# [8] = Hematology assays after oral gavage in CD-1 mice (Example 7); assay type: in vivo; design: RBC: unit not given here; details: 500 mg/kg oral gavage once daily for 4 weeks
# Experimental: as §1
# Blood obtained from all mouse groups was measured by an ADVIA2120i hematology analyzer (Siemens, USA) for measurements of the various blood cells, as well as other hematology markers. None of the Ionis SMAD7 oligonucleotides caused changes in the levels of any of the hematology markers outside the expected range for antisense oligonucleotides.
# [9] = Body and organ weights after subcutaneous administration in beagle dogs (Example 8); assay type: in vivo; details: 30 mg/kg subcutaneous days 1, 3, 5, 8, 15, 22, 29, end of study
# Experimental: as §3
# Body weights as well as kidney, spleen, liver (with gall bladder), mesenteric lymph node, heart, and thymus weights were measured at the end of the study. […] Ionis SMAD7 oligonucleotides that caused any changes in organ weights outside the expected range for antisense oligonucleotides were excluded from further studies.
substance,measurement,setting,value
"829994 (GGAGGCAGGGCCGCGA; 3-10-3 cEt gapmer, further chemistry not given here) [compound 829994]",Body weight,[1],35 g
same,Heart weight,[1],0.18 g
same,Kidneys weight,[1],0.62 g
same,Liver with gallbladder weight,[1],2.02 g
same,Spleen weight,[1],0.11 g
same,Levels of IL-6,[2]; 0.0128 μM oligonucleotide,4.1 pg/mL
same,Levels of IL-10,[2]; 0.0128 μM oligonucleotide,2.0 pg/mL
same,Levels of MCP-1,[2]; 0.0128 μM oligonucleotide,299.8 pg/mL
same,Levels of TNF-α,[2]; 0.0128 μM oligonucleotide,2.5 pg/mL
same,Levels of IL-6,[2]; 0.064 μM oligonucleotide,3.8 pg/mL
same,Levels of IL-10,[2]; 0.064 μM oligonucleotide,1.8 pg/mL
same,Levels of MCP-1,[2]; 0.064 μM oligonucleotide,379.8 pg/mL
same,Levels of TNF-α,[2]; 0.064 μM oligonucleotide,2.9 pg/mL
same,Levels of IL-6,[2]; 0.32 μM oligonucleotide,4.5 pg/mL
same,Levels of IL-10,[2]; 0.32 μM oligonucleotide,1.8 pg/mL
same,Levels of MCP-1,[2]; 0.32 μM oligonucleotide,489.7 pg/mL
same,Levels of TNF-α,[2]; 0.32 μM oligonucleotide,3.0 pg/mL
same,Levels of IL-6,[2]; 1.6 μM oligonucleotide,15.9 pg/mL
same,Levels of IL-10,[2]; 1.6 μM oligonucleotide,5.2 pg/mL
same,Levels of MCP-1,[2]; 1.6 μM oligonucleotide,1300.0 pg/mL
same,Levels of TNF-α,[2]; 1.6 μM oligonucleotide,8.0 pg/mL
same,Levels of IL-6,[2]; 8 μM oligonucleotide,202.5 pg/mL
same,Levels of IL-10,[2]; 8 μM oligonucleotide,8.0 pg/mL
same,Levels of MCP-1,[2]; 8 μM oligonucleotide,3370.0 pg/mL
same,Levels of TNF-α,[2]; 8 μM oligonucleotide,63.2 pg/mL
same,Levels of IL-6,[2]; 40 μM oligonucleotide,66.1 pg/mL
same,Levels of IL-10,[2]; 40 μM oligonucleotide,4.3 pg/mL
same,Levels of MCP-1,[2]; 40 μM oligonucleotide,1998.4 pg/mL
same,Levels of TNF-α,[2]; 40 μM oligonucleotide,32.3 pg/mL
same,Levels of IL-6,[2]; 200 μM oligonucleotide,97.1 pg/mL
same,Levels of IL-10,[2]; 200 μM oligonucleotide,3.8 pg/mL
same,Levels of MCP-1,[2]; 200 μM oligonucleotide,391.7 pg/mL
same,Levels of TNF-α,[2]; 200 μM oligonucleotide,28.6 pg/mL
same,"% inhibition of Smad7 mRNA expression (compared to control), Kidney",[3],73%
same,"% inhibition of Smad7 mRNA expression (compared to control), Liver",[3],58%
same,"Oligonucleotide concentration, Colon",[4],11 μg/g tissue
same,"Oligonucleotide concentration, Liver",[4],45 μg/g tissue
same,ALT,[5],62 IU/L
same,AST,[5],52 IU/L
same,Albumin,[5],3.1 g/dL
same,BUN,[5],15.4 mg/dL
same,Bilirubin,[5],0.1 mg/dL
same,Creatine,[5],0.7 mg/dL
same,ALT,[6],38 IU/L
same,AST,[6],71 IU/L
same,Albumin,[6],3.2 g/dL
same,BUN,[6],25 mg/dL
same,Bilirubin,[6],0.3 mg/dL
same,"Full length oligonucleotide, Distal colon",[7],7 µg/g
same,"Full length oligonucleotide, Duodenum",[7],23 µg/g
same,"Full length oligonucleotide, Ileum",[7],12 µg/g
same,"Full length oligonucleotide, Kidney",[7],894 µg/g
same,"Full length oligonucleotide, Liver",[7],335 µg/g
same,"Full length oligonucleotide, Proximal colon",[7],11 µg/g
same,Basophils,[8],0.01 10^3/μL
same,Eosinophils,[8],0.09 10^3/μL
same,Hematocrit,[8],51.5%
same,Hemoglobin,[8],15.2 g/dL
same,Lymphocytes,[8],80.4%
same,MCH,[8],15.1 pg
same,MCHC,[8],29.5 g/dL
same,MCV,[8],51.2 fL
same,Monocytes,[8],0.10 10^3/μL
same,Neutrophils,[8],14.0%
same,RBC,[8],10.1
same,Reticulocytes,[8],3.0%
same,WBC,[8],4.1 10^3/μL
same,platelets,[8],1219 10^3/μL
same,Body weight,[9],7335 g
same,Heart weight,[9],57.9 g
same,Kidney weight,[9],39.1 g
same,Liver weight,[9],250.0 g
same,Mesenteric LN weight,[9],9.0 g
same,Spleen weight,[9],22.8 g
same,Thymus weight,[9],6.3 g
"830025 (antisense TTTGTAAATCGAAAGC; 3-10-3 cEt gapmer, further chemistry not given here) [compound 830025]",Body weight,[1],35 g
same,Heart weight,[1],0.17 g
same,Kidneys weight,[1],0.71 g
same,Liver with gallbladder weight,[1],1.88 g
same,Spleen weight,[1],0.10 g
same,Levels of IL-6,[2]; 0.0128 μM oligonucleotide,3.1 pg/mL
same,Levels of IL-10,[2]; 0.0128 μM oligonucleotide,1.5 pg/mL
same,Levels of MCP-1,[2]; 0.0128 μM oligonucleotide,309.7 pg/mL
same,Levels of TNF-α,[2]; 0.0128 μM oligonucleotide,2.8 pg/mL
same,Levels of IL-6,[2]; 0.064 μM oligonucleotide,3.8 pg/mL
same,Levels of IL-10,[2]; 0.064 μM oligonucleotide,1.9 pg/mL
same,Levels of MCP-1,[2]; 0.064 μM oligonucleotide,353.9 pg/mL
same,Levels of TNF-α,[2]; 0.064 μM oligonucleotide,2.9 pg/mL
same,Levels of IL-6,[2]; 0.32 μM oligonucleotide,5.0 pg/mL
same,Levels of IL-10,[2]; 0.32 μM oligonucleotide,2.6 pg/mL
same,Levels of MCP-1,[2]; 0.32 μM oligonucleotide,387.7 pg/mL
same,Levels of TNF-α,[2]; 0.32 μM oligonucleotide,3.9 pg/mL
same,Levels of IL-6,[2]; 1.6 μM oligonucleotide,12.9 pg/mL
same,Levels of IL-10,[2]; 1.6 μM oligonucleotide,3.6 pg/mL
same,Levels of MCP-1,[2]; 1.6 μM oligonucleotide,554.3 pg/mL
same,Levels of TNF-α,[2]; 1.6 μM oligonucleotide,5.4 pg/mL
same,Levels of IL-6,[2]; 8 μM oligonucleotide,17.8 pg/mL
same,Levels of IL-10,[2]; 8 μM oligonucleotide,2.9 pg/mL
same,Levels of MCP-1,[2]; 8 μM oligonucleotide,750.0 pg/mL
same,Levels of TNF-α,[2]; 8 μM oligonucleotide,6.7 pg/mL
same,Levels of IL-6,[2]; 40 μM oligonucleotide,19.5 pg/mL
same,Levels of IL-10,[2]; 40 μM oligonucleotide,1.4 pg/mL
same,Levels of MCP-1,[2]; 40 μM oligonucleotide,580.8 pg/mL
same,Levels of TNF-α,[2]; 40 μM oligonucleotide,7.6 pg/mL
same,Levels of IL-6,[2]; 200 μM oligonucleotide,30.6 pg/mL
same,Levels of IL-10,[2]; 200 μM oligonucleotide,0.7 pg/mL
same,Levels of MCP-1,[2]; 200 μM oligonucleotide,52.7 pg/mL
same,Levels of TNF-α,[2]; 200 μM oligonucleotide,4.9 pg/mL
same,"% inhibition of Smad7 mRNA expression (compared to control), Kidney",[3],45%
same,"% inhibition of Smad7 mRNA expression (compared to control), Liver",[3],60%
same,"Oligonucleotide concentration, Colon",[4],39 μg/g tissue
same,"Oligonucleotide concentration, Liver",[4],77 μg/g tissue
same,ALT,[5],26 IU/L
same,AST,[5],38 IU/L
same,Albumin,[5],3.1 g/dL
same,BUN,[5],17.9 mg/dL
same,Bilirubin,[5],0.1 mg/dL
same,Creatine,[5],0.9 mg/dL
same,ALT,[6],34 IU/L
same,AST,[6],65 IU/L
same,Albumin,[6],3.3 g/dL
same,BUN,[6],21 mg/dL
same,Bilirubin,[6],0.2 mg/dL
same,"Full length oligonucleotide, Distal colon",[7],49 µg/g
same,"Full length oligonucleotide, Duodenum",[7],97 µg/g
same,"Full length oligonucleotide, Ileum",[7],41 µg/g
same,"Full length oligonucleotide, Kidney",[7],1470 µg/g
same,"Full length oligonucleotide, Liver",[7],466 µg/g
same,"Full length oligonucleotide, Proximal colon",[7],31 µg/g
same,Basophils,[8],0.01 10^3/μL
same,Eosinophils,[8],0.08 10^3/μL
same,Hematocrit,[8],52.4%
same,Hemoglobin,[8],15.0 g/dL
same,Lymphocytes,[8],77.6%
same,MCH,[8],14.9 pg
same,MCHC,[8],28.5 g/dL
same,MCV,[8],52.3 fL
same,Monocytes,[8],0.12 10^3/μL
same,Neutrophils,[8],17.5%
same,RBC,[8],10.1
same,Reticulocytes,[8],3.2%
same,WBC,[8],4.7 10^3/μL
same,platelets,[8],1236 10^3/μL
same,Body weight,[9],7403 g
same,Heart weight,[9],60.5 g
same,Kidney weight,[9],40.3 g
same,Liver weight,[9],250.3 g
same,Mesenteric LN weight,[9],10.9 g
same,Spleen weight,[9],28.9 g
same,Thymus weight,[9],8.3 g
